This is an account of results in ChEMBL document CHEMBL1150521, “2-NAP: a selective, hydrophilic, non-peptide CCKA - receptor antagonist derived from the cholecystokinin C-terminal dipeptide” (Bioorg Med Chem Lett, 1993).

Activity calls are given as the source filed them. No cut-off for these calls is given here. Residues, ends and D or L forms follow the SMILES beside them. *: point of attachment. Boc = CC(C)(C)OC(=O)*

Data set [1] addresses T1, Cholecystokinin receptor type A (Cavia porcellus) (UniProt Q63931).
T1 sequence (whole entry): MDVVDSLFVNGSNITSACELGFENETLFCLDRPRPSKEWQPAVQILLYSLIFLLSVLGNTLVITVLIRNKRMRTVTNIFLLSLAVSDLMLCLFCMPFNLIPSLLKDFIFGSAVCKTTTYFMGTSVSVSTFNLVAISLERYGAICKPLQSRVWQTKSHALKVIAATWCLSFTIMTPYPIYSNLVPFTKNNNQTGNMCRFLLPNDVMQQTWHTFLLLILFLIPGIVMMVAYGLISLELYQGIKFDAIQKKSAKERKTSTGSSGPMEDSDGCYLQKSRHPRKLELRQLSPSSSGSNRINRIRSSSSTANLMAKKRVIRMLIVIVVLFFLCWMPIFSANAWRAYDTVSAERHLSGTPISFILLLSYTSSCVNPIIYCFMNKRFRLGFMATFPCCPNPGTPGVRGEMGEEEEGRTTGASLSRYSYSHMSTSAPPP
The data set can be described thus: Binding affinity for Cholecystokinin type A receptor in Guinea-Pig gall bladder. Format: tissue-based.

Data set [2] in a line: Compound was evaluated for partition coefficient using chloroform/buffer at pH 7.4 and 280 nm. It counts as physicochemical. The conditions noted are these: octanol/water.
A short description of data set [3]: Compound was evaluated for partition coefficient using chloroform/buffer at pH 7.4 and 254 nm. The conditions noted are these: octanol/water. Format: physicochemical.
Data set [4] addresses T2, Gastrin/cholecystokinin type B receptor (Mus musculus) (UniProt P56481).
T2 sequence (whole entry): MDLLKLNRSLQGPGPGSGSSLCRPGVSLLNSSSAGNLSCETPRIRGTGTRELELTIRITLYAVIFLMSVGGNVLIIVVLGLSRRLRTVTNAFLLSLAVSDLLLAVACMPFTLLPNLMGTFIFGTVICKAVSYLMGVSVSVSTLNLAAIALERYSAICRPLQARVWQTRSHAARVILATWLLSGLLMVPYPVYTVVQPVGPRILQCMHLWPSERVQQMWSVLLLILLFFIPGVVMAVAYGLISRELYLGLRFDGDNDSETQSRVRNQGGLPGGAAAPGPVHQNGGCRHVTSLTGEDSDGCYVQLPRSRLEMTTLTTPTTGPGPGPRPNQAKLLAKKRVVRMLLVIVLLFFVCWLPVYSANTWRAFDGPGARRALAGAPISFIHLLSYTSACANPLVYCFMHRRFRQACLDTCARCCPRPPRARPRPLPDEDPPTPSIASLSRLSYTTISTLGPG
The data set is described as follows: Efficiency against CCKB/Gastrin receptor for stimulation of gastric acid secretion in lumen-perfused mouse stomach: activity measured as midpoint agonist concentration-effect curve parameter. It counts as functional, tissue-based.

The target of data set [5] is T1, Cholecystokinin receptor type A (Cavia porcellus). The data set is described as follows: Affinity at Cholecystokinin type A receptor in guinea pig gall bladder; inactive at the limits of solubility, usually 10e-4 M. It counts as tissue-based.
Data set [6] addresses T2, Gastrin/cholecystokinin type B receptor (Mus musculus). The data set can be described thus: Maximum acid secretion obtained at 10e -5 M: values expressed as percentage of the maximum response to pentagastrin (n=4/6) in mouse stomach at CCKB/Gastrin receptor. It counts as functional, tissue-based.
Data set [7] has the same target. The data set can be described thus: Efficiency against CCKB/Gastrin receptor for stimulation of gastric acid secretion in lumen-perfused mouse stomach: activity measured as midpoint agonist concentration-effect curve parameter; inactive at the limits of solubility, u sually 10e-4M. It counts as functional, tissue-based.
Data set [8] deals with T3, Gastrin/cholecystokinin type B receptor (Mus musculus, UniProt P56481).
T3 sequence (P56481 whole entry): T2 sequence (whole entry)
The data set can be described thus: Compound was evaluated for its affinity against Cholecystokinin type B receptor in mouse cerebral cortex. Format: tissue-based.

Data set [9] concerns the target T2, Gastrin/cholecystokinin type B receptor (Mus musculus). The data set can be described thus: Maximum acid secretion obtained at 10e -5 M: values expressed as percentage of the maximum response to pentagastrin (n=4/6) in mouse stomach at CCKB/Gastrin receptor; inactive at the limits of solubility, usually 10e-4 M. Format: functional, tissue-based.
In data set [10] the target is T4, Cholecystokinin receptor type A (Cavia porcellus, UniProt Q63931).
T4 sequence (Q63931 whole entry): T1 sequence (whole entry)
The data set is described as follows: In vitro affinity against Cholecystokinin type A receptor in guinea pig pancreatic cell.

For data set [11], the target named is T1, Cholecystokinin receptor type A (Cavia porcellus). The data set can be described thus: Compound was evaluated for its affinity at Cholecystokinin type A receptor in Guinea-Pig gall bladder. Format: tissue-based.
The target is the same in data set [12]. The data set can be described thus: Compound was evaluated for its affinity at Cholecystokinin type A receptor in Guinea-Pig gallbladder.
For data set [13] the target is unchanged. The data set can be described thus: Compound was evaluated for its affinity at Cholecystokinin type A receptor in Guinea-Pig gallbladder; inactive at the limits of solubility, usually 10e-4 M.
For data set [14] the target is unchanged. The data set can be described thus: Compound was evaluated for its affinity at Cholecystokinin type A receptor in Guinea-Pig gall bladder; inactive at 10e-4 M. Format: tissue-based.

With `O=C(O)C[C@H](NS(=O)(=O)/C=C/c1ccccc1)C(=O)NCCc1ccccc1`, in data set [1], the pKB (usually the KB on a negative log10 scale, so that one unit is a factor of ten) was determined as 6.3. `CN1C(=O)[C@@H](NC(=O)c2cc3ccccc3[nH]2)N=C(c2ccccc2)c2ccccc21` [DEVAZEPIDE]: the values for the logD in data set [2] and in data set [3] were 4.1 and 4.16, respectively. As to `NC(=O)[C@H](Cc1ccccc1)NC(=O)[C@H](CC(=O)O)NS(=O)(=O)c1cccc2ccccc12`, the p[A50] in data set [4] was determined as 4.6. The pKB result in data set [5] was “inactive”. In [6], this molecule yielded a Max response of 30%.

Take `O=C(O)C[C@H](NS(=O)(=O)c1ccc2ccccc2c1)C(=O)NCCc1ccccc1`: the logD in data set [2] and in [3] was -0.91 each time. For the same molecule, in data set [7], the “p[A50]” value was “inactive”. Also, the Ki (usually a dissociation constant, usually derived from enzyme kinetics or from competition with a known ligand) in data set [8] was 69.2 µM; in data set [10], 0.355 µM. Further, the Max response result in [9] is “inactive”. The molecule further displayed a pKB in data set [5] of 6.5. `COc1ccc(CCNC(=O)[C@H](CC(=O)O)NS(=O)(=O)c2ccc3ccccc3c2)cc1` displayed a pKB in data set [1] of 6. As for `O=C(O)C[C@H](NS(=O)(=O)c1ccccc1)C(=O)NCCc1ccccc1`, the pKB entry in [5] was “inactive”. `CC(C)C[C@H](NC(=O)[C@H](Cc1c[nH]c2ccccc12)NC(=O)OC(C)(C)C)C(=O)N[C@@H](CC(=O)O)C(=O)N[C@@H](Cc1ccccc1)C(N)=O` (Boc-WLDF-NH2): the pKB in data set [11] is 5.1. In data set [4], this molecule showed a p[A50] of 8.6. The same molecule came in with a Max response in data set [6] of 100%. Turning to `O=C(O)CC[C@H](NS(=O)(=O)c1ccc2ccccc2c1)C(=O)NCCc1ccccc1`, the pKB in [1] turned out to be 6.1.

Consider `NS(=O)(=O)c1ccc(CCNC(=O)[C@H](CC(=O)O)NS(=O)(=O)c2ccc3ccccc3c2)cc1`, for which the pKB in [1] was 5.

As for `O=C(O)C[C@H](NC(=O)c1ccc2ccccc2c1)C(=O)NCCc1ccccc1`, the “p[A50]” value in data set [7] is “inactive”. This molecule yielded a pKB in data set [12] of 5.6. Also, in data set [9], the Max response result was “inactive”. Take `O=C(O)CC[C@@H](NS(=O)(=O)c1ccc2ccccc2c1)C(=O)NCCc1ccccc1`: in data set [5], the pKB entry was “inactive”.

`O=C(O)C[C@H](NS(=O)(=O)c1ccc2ccccc2c1)C(=O)NCCCc1ccccc1`: the pKB in data set [1] worked out at 7. As for `O=C(O)C[C@H](NS(=O)(=O)c1cccc2ccccc12)C(=O)NCCc1ccccc1`, the “p[A50]” value in [7] was “inactive”. The Max response result in data set [9] was “inactive”. Besides, the pKB entry in [5] is “inactive”. In the case of `COc1ccc2cc(S(=O)(=O)N[C@@H](CC(=O)O)C(=O)NCCc3ccccc3)ccc2c1Cl`, the pKB in data set [1] is 6.5. As for `COc1cc2cc(S(=O)(=O)N[C@@H](CC(=O)O)C(=O)NCCc3ccccc3)ccc2c(Cl)c1OC`, in [1], the pKB came to 6.2. On to `COc1ccc(S(=O)(=O)N[C@@H](CC(=O)O)C(=O)NCCc2ccccc2)cc1`, for which the pKB result in data set [5] is “inactive”. In turn, `NC(=O)[C@H](Cc1ccccc1)NC(=O)[C@H](CC(=O)O)NS(=O)(=O)c1ccc2ccccc2c1` gave a p[A50] in [4] of 5.6. For the same molecule, the pKB entry in [5] is “inactive”. Moreover, the Max response in data set [6] worked out at 96%. Take `O=C(O)C[C@H](NS(=O)(=O)c1ccc(Cl)c(Cl)c1)C(=O)NCCc1ccccc1`: the pKB in [1] turned out to be 5.8. In data set [1], `O=C(O)C[C@H](NS(=O)(=O)c1ccc2ccccc2c1)C(=O)NCCc1ccc(F)cc1` displayed a pKB of 6.6.

Consider `COc1ccc2cc(S(=O)(=O)N[C@@H](CC(=O)O)C(=O)NCCc3ccccc3)ccc2c1`, for which the pKB in data set [1] stood at 6.6.

In turn, `O=C(O)C[C@H](NS(=O)(=O)CCc1ccccc1)C(=O)NCCc1ccccc1` returned a pKB in data set [1] of 5.5. Consider `Cc1ccc(S(=O)(=O)N[C@@H](CC(=O)O)C(=O)NCCc2ccccc2)cc1`, for which, in [5], the pKB entry is “inactive”.

As for `O=C(O)C[C@H](NS(=O)(=O)Cc1ccc2ccccc2c1)C(=O)NCCc1ccccc1`, the pKB in data set [1] came out at 5.4. For `CC(C)(C)OC(=O)N[C@@H](CC(=O)O)C(=O)NCCc1ccccc1`, in data set [7], the “p[A50]” value was “inactive”. Moreover, in [13], the pKB result is “inactive”. In addition, the Max response result in data set [9] was “inactive”. On to `CC(C)(C)OC(=O)N[C@@H](CC(=O)O)C(=O)N[C@@H](Cc1ccccc1)C(N)=O` (Boc-Asp-Phe-NH2), for which the pKB result in data set [14] is “inactive”. Moreover, the p[A50] in [4] came out at 5.7. In data set [6], this molecule gave a Max response of 100%. As for `NC(=O)[C@H](Cc1ccccc1)NC(=O)[C@H](CC(=O)O)NC(=O)c1ccc2ccccc2c1`, the p[A50] in data set [4] was found to be 5. In addition, the pKB entry in [5] was “inactive”. The molecule further came in with a Max response in data set [6] of 100%. In the case of `O=C(O)C[C@H](NS(=O)(=O)Cc1ccccc1)C(=O)NCCc1ccccc1`, in data set [5], the pKB entry is “inactive”. With `O=C(O)C[C@@H](NS(=O)(=O)c1ccc2ccccc2c1)C(=O)NCCc1ccccc1`, the pKB in [1] is 5.9. As to `O=C(O)C[C@H](NS(=O)(=O)CCCc1ccccc1)C(=O)NCCc1ccccc1`, the pKB entry in data set [5] is “inactive”.
